Structures can show the parent of a compound that is named as a salt. Blank lines part the entries; values can stand above or below the compound they belong to.
Legend:
in vivo [1] = conditions: male, Wistar, rat, inhaled or intranasal, mean ± SD, N=4; for half-life: T½
[2] = intranasal, 0.05, 0.1 and 0.2 mg/kg, rats
[3] = endocyclic and exocyclic double bonds to epoxides; tertiary amine to N-oxide; cited from earlier work
in vivo [4] = assay: in vivo
Procedure: A serial blood sampling was performed from each animal. The blood samples were collected at 0.00 (pre-dose), 0.083, 0.25, 0.5, 1, 2, 4, 6, 8, 24 hrs. […] Pharmacokinetic parameters were calculated using the non-compartmental analysis (NCA) module of Phoenix-WinNonlin® software version 6.4.

[5] = humans, cited from earlier work
in vivo [6] = conditions: male, Wistar, rat, plasma
Procedure: A serial blood sampling was performed from each animal. The blood samples were collected at 0.00 (pre-dose), 0.08, 0.25, 0.5, 1, 2, 4, 6, 8, 24 hrs. […] Pharmacokinetic parameters were calculated using the non-compartmental analysis (NCA) module of Phoenix-WinNonlin® software version 6.4.

[7] = in vivo, planned 0.2 mg/kg (actual 0.14 mg/kg)
[8] = plasma, planned 0.05 mg/kg (actual 0.03 mg/kg)
[9] = plasma, planned 0.1 mg/kg (actual 0.07 mg/kg)
[10] = New Zealand white, rabbit, plasma, inhaled or intranasal, 0.011 mg/kg
[11] = male, Wistar, rat, inhaled or intranasal, 0.4 mg/kg
[12] = male, Wistar, rat, po, 1.05 mg/kg
[13] = male, beagle, dog, plasma, inhaled or intranasal, 0.26 mg/kg
[14] = male, beagle, dog, plasma, po, 0.51 mg/kg
[15] = inhaled or intranasal, 0.02 mg/kg

AUC(0-t) (in vivo [1]; [7]): 22.4 ± 10.1 ng·h/mL
half-life (in vivo [1]; in vivo, planned 0.05 mg/kg (actual 0.03 mg/kg)): 1.9 ± 0.3 h
half-life (in vivo [1]; in vivo, planned 0.1 mg/kg (actual 0.07 mg/kg)): 1.6 ± 0.2 h
half-life (in vivo [1]; [7]): 2.2 ± 0.3 h
AUC(0-t) (in vivo [1]; [8]): 4.8 ± 1.4 ng·h/mL
AUC(0-t) (in vivo [1]; [9]): 10.6 ± 3 ng·h/mL
Cmax (in vivo [1]; [8]): 4.6 ± 1.7 ng/mL
Cmax (in vivo [1]; [9]): 16.4 ± 11.6 ng/mL
Cmax (in vivo [1]; plasma, planned 0.2 mg/kg (actual 0.14 mg/kg)): 27.6 ± 26.4 ng/mL
Bioavailability versus dose [2]: Dose dependent linear bioavailability
AUC(0-inf) (in vivo [4]; [10]): 0.92 ng·h/mL
AUC(0-t) (in vivo [4]; [10]): 0.52 ng·h/mL
Cmax (in vivo [4]; [10]): 0.56 ng/mL
MRT inf (in vivo [4]; [10]): 2.43 h
MRT last (in vivo [4]; [10]): 0.87 h
Vd/F (in vivo [4]; [10]): 28.6 L/kg
Cl—F—pred (in vivo [4]; intranasal, 0.011 mg/kg): 199.56 mL/min/kg
HL—Lambda—z (in vivo [4]; intranasal, 0.011 mg/kg): 1.65 h
DNAUC (AUC normalized at 1 mg/kg dose) (in vivo [4]; intranasal, 0.26 mg/kg): 385.92
DNAUC (AUC normalized at 1 mg/kg dose) (in vivo [4]; male, Wistar, rat, inhaled or intranasal): 130.85
AUC(0-inf) (in vivo [4]; [11]): 52.3 ± 12.8 ng·h/mL
AUC(0-t) (in vivo [4]; [11]): 51.2 ± 12.8 ng·h/mL
Cmax (in vivo [4]; [11]): 31.3 ± 10.1 ng/mL
half-life (in vivo [4]; [11]): 2.79 ± 2.35 h
DNAUC (AUC normalized at 1 mg/kg dose) (in vivo [4]; male, Wistar, rat, po): 3.11
AUC(0-inf) (in vivo [4]; [12]): 3.27 ± 0.42 ng·h/mL
AUC(0-t) (in vivo [4]; [12]): 2.98 ± 0.42 ng·h/mL
Cmax (in vivo [4]; [12]): 1.74 ± 0.95 ng/mL
half-life (in vivo [4]; [12]): 1.43 ± 0.33 h
AUC(0-inf) (in vivo [4]; [13]): 103 ± 26.2 ng·h/mL
AUC(0-t) (in vivo [4]; [13]): 100 ± 25.9 ng·h/mL
Cmax (in vivo [4]; [13]): 62.3 ± 13.8 ng/mL
Tmax (in vivo [4]; [13]): 0.083 h
half-life (in vivo [4]; [13]): 6.09 ± 2.27 h
AUC(0-inf) (in vivo [4]; [14]): 7.58 ± 5.64 ng·h/mL
AUC(0-t) (in vivo [4]; [14]): 7.03 ± 5.65 ng·h/mL
Cmax (in vivo [4]; [14]): 1.61 ± 1.21 ng/mL
Tmax (in vivo [4]; [14]): 1.5 h
half-life (in vivo [4]; [14]): 2.03 ± 0.64 h
Plasma concentrations (in vivo [4]; oral, 0.442 mg/kg, n=4, rabbits): below the limit of quantification
DNAUC (AUC normalized at 1 mg/kg dose) (in vivo [4]; oral, 0.51 mg/kg): 13.52
Tmax (in vivo [4]; rat, inhaled or intranasal, 0.4 mg/kg): 0.083 h
Tmax (in vivo [4]; rat, po, 1.05 mg/kg): 0.5 (0.25-1.0) Hour
AUC(0-inf) (in vivo [6]; [15]): 2.59 ng·h/mL
AUC(0-t) (in vivo [6]; [15]): 2.32 ng·h/mL
Cmax (in vivo [6]; [15]): 2.83 ng/mL
Tmax (in vivo [6]; [15]): 0.083 h
half-life (in vivo [6]; [15]): 1.07 h
AUC(0-inf) (in vivo [6]; po, 0.885 mg/kg): 3.26 ng·h/mL
AUC(0-t) (in vivo [6]; po, 0.885 mg/kg): 2.54 ng·h/mL
Cmax (in vivo [6]; po, 0.885 mg/kg): 1.2 ng/mL
Tmax (in vivo [6]; po, 0.885 mg/kg): 1 h
half-life (in vivo [6]; po, 0.885 mg/kg): 2.61 h
SMILES: CN(C)CCC=C1c2ccccc2C=Cc2ccccc21 [cyclobenzaprine, 3-(5H-Dibenzo[a,d]cyclohepten-5-ylidene)-N,N-dimethyl-1-propanamine]
stability towards oxidation [3]: very unstable
plasma clearance [5]: 0.7 L/min
effective half-life ([5]; range 8-37 hours, n=18): 18 h

SMILES: CN(C)CCC=C1c2ccccc2C=Cc2ccccc21 [Cyclobenzaprine hydrochloride, cyclobenzaprine hydrochloride]
dose excreted in the urine as unchanged drug ([5]; study with 14C-labelled drug): about 1%
